# Key:
# [1] = test system: PAER (carbapenem-resistant Pseudomonas aeruginosa, CRPA); conditions: imipenem control, 2 mg/kg, 3 doses
# Procedure: In another study, mice (5 per group) were treated with varied doses of PIM 1 at 1 h, 4 h and 8 h post-infection with PAO1. Positive and negative control groups of mice were injected with 2 mg/kg of imipenem and same volume of PBS respectively, at the same time point. At the 12th hour, all mice were euthanized with peritoneal washes performed via injecting 3.0 mL of PBS into the intraperitoneal cavity followed by massaging the abdomen for 1 min. After which, approximately 1 mL of peritoneal fluid was recovered to calculating the CFU of bacteria, as well as for immune cells quantification.
# For carbapenem-resistant Acinetobacter baumannii (CRAB) and carbapenem-resistant Pseudomonas aeruginosa (CRPA) septicemia protection model, similar procedure was conducted with care and 5% mucin was injected together with the bacteria to have the mice immunocompromised (resulting in similar conditions as hospitalised patients).
# [2] = test system: AB-1 (carbapenem-resistant Acinetobacter baumannii, CRAB); conditions: imipenem control, 2 mg/kg × 3 doses
# Procedure: In another study, mice (5 per group) were treated with varied doses of PIM 1 at 1 h, 4 h and 8 h post-infection with PAO1. Positive and negative control groups of mice were injected with 2 mg/kg of imipenem and same volume of PBS respectively, at the same time point. At the 12th hour, all mice were euthanized with peritoneal washes performed via injecting 3.0 mL of PBS into the intraperitoneal cavity followed by massaging the abdomen for 1 min. After which, approximately 1 mL of peritoneal fluid was recovered to calculating the CFU of bacteria, as well as for immune cells quantification. Bacterial loads were also evaluated in the spleen, liver and kidneys of the animals.
# For carbapenem-resistant Acinetobacter baumannii (CRAB) and carbapenem-resistant Pseudomonas aeruginosa (CRPA) septicemia protection model, similar procedure was conducted with care and 5% mucin was injected together with the bacteria to have the mice immunocompromised (resulting in similar conditions as hospitalised patients). The amount of bacteria was analysed with one-way classification analysis of variance (ANOVA) and student's t-test (Graphpad Prism for Windows, version 7).
# SA29213 = type: cell-based, S. aureus; conditions: serial passaging at sub-MIC levels, 21 days
# Procedure: Aliquots of the bacteria at various time points were stored in glycerol and kept at −80° C. for further study whenever resistance development was observed. Ofloxacin was used as the positive control.
# PAO1 = assay: Mouse septicemia model, survival; type: in vivo; conditions: 1 mg/kg IP at 0.5 h, 4 h and 8 h post-infection; monitored over 7 days
# Procedure: Given the excellent bacteria killing properties and biocompatibility of PIM 1 chloride, the therapeutic efficacy of this polymer was tested in vivo using a mouse septicemia model (FIG. 13). Balb/c female mice (7 weeks with one week quarantine) were used to test the PAO1 septic shock protection efficacy of PIM 1. Exponential phase of PAO1 was collected and washed twice with PBS, and re-suspended in the same volume of PBS. 300 μL of cell suspension containing 3×10^7 CFU of PAO1 was introduced into each mouse via intraperitoneal injection to induce septic shock. […] The survival rate of the mice was monitored over 7 days.
compound,measurement,setting,value
C[C@@H](O)[C@H]1C(=O)N2C(C(=O)O)=C(SCCN=CN)C[C@H]12 [imipenem],reduction in the population of CRPA in the intraperitoneal fluid (in words),[1],no reduction
same,removal of AB-1 from the peritoneal fluid (in words),[2],did not show any removal
CC1COc2c(N3CCN(C)CC3)c(F)cc3c(=O)c(C(=O)O)cn1c23 (stereo not shown) [ofloxacin],resistance evolution,SA29213,above 128 MIC fold change
colistin,survival rate,PAO1,80%

# Source: patent US11439660B2, “Antimicrobial poly(alkylated imidazolium) salts” (NANYANG TECHNOLOGICAL UNIVERSITY, priority 2017, dated 2022)
